# Assay results from patent US20080153705A1, “METHOD FOR INHIBITING DIFFERENTITATION AND FORMATION OF CONIFEROPHYTA MALE FLOWERS BY TREATMENT WITH PROHEXADIONE COMPOUNDS” (Syngenta Crop Protection, Inc., priority 2002, published 2008).
# Legend:
# [1] = system: 43-year old Cryptomeria japonica trees; assay: Aerial (helicopter curtain) application of the agent to a forest of 43-year old Cryptomeria japonica trees (Example 2); type: in vivo; conditions: 43-year old trees; for Number of male flower clusters: Table 6 composition (polyoxyethylene castor oil, tetrahydrofurfuryl alcohol, water), 1.8 liters per 10 a by helicopter, control group 2985.8 ± 789.1; for Shoot Elongation: Table 6 composition, control group 80.8 ± 9.4
# Description: A Cryptomeria japonica forest having 43-year old Cryptomeria japonica trees (height: 16 m, diameter at breast height: 35 cm) was treated in Nirayama experimental plantation of the department of agriculture of Tottori University on Jun. 25, 2001.
# The concentration of the agent for inhibiting the formation of Cryptomeria japonica pollen thus sprayed was 50 or 500 ppm.
# 1.8 liters of each of the above described two compositions was applied to the forest having an area of 10 a by the curtain application method with a helicopter. The aerial application was conducted twice, using 0.9 liter of the composition each time. In a control group, only water free from the active ingredients was used for the aerial application.
# [2] = system: 8-year old young Cryptomeria japonica trees; assay: Foliar spray of prohexadione compound on branches of 8-year old young Cryptomeria japonica trees (Example 1); type: in vivo; conditions: 8-year old trees; for Branches Elongation: control group 24.6 ± 6.4; for Number of male flower clusters: 100 ml foliar spray, control group 136.9 ± 21.6
# Description: Two 8-year old young Cryptomeria japonica trees (height: 8 m, diameter at breast height: 6 cm) which were in a nursery of an experimental plantation of the department of agriculture of Tottori University and which had formed male flowers every year were used. Three branches were selected at male flower-forming positions of each tree. These branches which were supposed to form the male flowers were treated with the prohexadione compound ([…]) on Jun. 5, 2001 (about one month before the beginning of July when Cryptomeria japonica flower buds were supposed to differentiate and Cryptomeria japonica flower buds were supposed to be formed). In this test, the prohexadione compound was diluted to a concentration shown in Table 3 given below with 60% (v/v) aqueous acetone solution.
# The treatment method was as follows: 100 ml of the diluted solution obtained as described above was sprayed on leaves of the branches (50 cm long area from the branch top) with a hand sprayer In a control group, the leaves were treated with only 60% (v/v) aqueous acetone solution.
# The concentrations of the prohexadione compound used for the foliar spray treatment were as follows: • Concentration (ppm) • 0.5 • 5 • 50 • 500
structure (smiles),measurement,setting,value
CCOC(=O)C1CC(=O)C(=C(O)C2CC2)C(=O)C1 (stereo not shown),Elongation growth of the Cryptomeria japonica trees versus control group (in words),"[1]; 50 or 500 ppm, aerial application",substantially the same as that in the control group
same,Effect of inhibiting the differentiation and formation of the male flowers (in words),"[1]; 50 ppm or 500 ppm, aerial application",remarkable effect
same,Number of male flower clusters,[1]; 50 ppm,751.3 ± 121.5
same,Shoot Elongation,"[1]; 50 ppm, aerial application",83.3 ± 10.7 cm
same,Number of male flower clusters,[1]; 500 ppm,124.2 ± 55.2
same,Shoot Elongation,"[1]; 500 ppm, aerial application",82.8 ± 11.2 cm
same,Branches Elongation,[2]; 0.5 ppm foliar spray,25.5 ± 7.2 cm
same,Number of male flower clusters,[2]; 0.5 ppm in 60% aqueous acetone,111.6 ± 25.2
same,Elongation growth of the Cryptomeria japonica branches versus control group (in words),[2]; 0.5 to 500 ppm,substantially unchanged
same,Branches Elongation,[2]; 5 ppm foliar spray,26.2 ± 6.5 cm
same,Number of male flower clusters,[2]; 5 ppm in 60% aqueous acetone,70.4 ± 12.4
same,Branches Elongation,[2]; 50 ppm foliar spray,24.3 ± 6.3 cm
same,Number of male flower clusters,[2]; 50 ppm in 60% aqueous acetone,21.2 ± 6.5
same,Effect of inhibiting the differentiation and formation of male Cryptomeria japonica flowers (in words),[2]; 50 ppm or 500 ppm,remarkable
same,Branches Elongation,[2]; 500 ppm foliar spray,25.2 ± 5.5 cm
same,Number of male flower clusters,[2]; 500 ppm in 60% aqueous acetone,10.8 ± 6.1
